Calls of active or inactive are those of the source. The rule behind the calls is not given here.
Experiments:
MIA PaCa-2 [1] = assay: Induction of cell arrest in human MIA PaCa-2 cells assessed as viable cells at 100 nM measured after 4 days by Annexin V-FITC and propidium iodide (PI) staining based assay (reference value: 94.9%); type: functional; details: MIA PaCa-2, 96 h, time 4 day, read-out: Activity
[2] = Antiproliferative activity against human […] cells assessed as cell viability measured after 168 hrs incubation by SRB assay; type: functional, cell-based
MIA PaCa-2 [3] = assay: Induction of cell arrest in human MIA PaCa-2 cells assessed as accumulation of cells at S phase at 50 nM measured after 96 hrs by PI staining based flow cytometry (reference value: 16.8%); type: functional
MIA PaCa-2 [4] = assay: Induction of cell arrest in human MIA PaCa-2 cells assessed as accumulation of cells at S phase at 500 nM measured after 96 hrs by PI staining based flow cytometry (reference value: 16.8%); type: functional
MIA PaCa-2 [5] = assay: Induction of cell arrest in human MIA PaCa-2 cells assessed as necrotic cells at 200 nM measured after 4 days by Annexin V-FITC and propidium iodide (PI) staining based assay (reference value: 0.82%); type: functional; details: time 4 day
MIA PaCa-2 [6] = assay: Down-regulation of CytB gene expression in human MIA PaCa-2 cells at 0.1 to 1 uM measured after 12 hrs by RT-qPCR analysis; type: functional, cell-based; details: dose 0.1-1 µM
CAPAN-1 = assay: Antiproliferative activity against human CAPAN-1 cells assessed as cell viability measured after 168 hrs incubation by SRB assay; type: functional, cell-based; details: CAPAN-1, 168 h
[7] = Toxicity in BALB/c mouse xenografted with human MIA PaCa-2 cells assessed as pathological change in spleen at 25 to 100 mg/kg, iv once daily for 25 consecutive day after 2 weeks of cells injection by H and E staining based optical microscopic analysis; type: organism-based; details: in vivo, 336 h, dose 25-100 mg/kg
MIA PaCa-2 [8] = assay: Effect on ATP5A protein complexes in human MIA PaCa-2 cells reduction in NDUFB8 protein level at 0.01 to 10 uM by Western blot analysis; type: functional, cell-based; details: dose 0.01-10 µM
MIA PaCa-2 [9] = assay: Induction of cell arrest in human MIA PaCa-2 cells assessed as accumulation of cells at G1 phase at 50 nM measured after 96 hrs by PI staining based flow cytometry (reference value: 64%); type: functional
MIA PaCa-2 [10] = assay: Inhibition of RNA pol III in human MIA PaCa-2 cells assessed as effect on 5S RNA level at 0.1 to 1 uM measured after 12 hrs by RT-qPCR analysis; type: cell-based; details: dose 0.1-1 µM
MIA PaCa-2 [11] = assay: Reduction of protein complexes of mitochondrial electron transport chain in human MIA PaCa-2 cells reduction in NDUFB8 protein level by Western blot analysis; type: functional, cell-based; details: dose 0.001-5 µM
[12] = Toxicity in BALB/c mouse xenografted with human MIA PaCa-2 cells assessed as pathological change in heart at 25 to 100 mg/kg, iv once daily for 25 consecutive day after 2 weeks of cells injection by H and E staining based optical microscopic analysis; type: organism-based; details: in vivo, 336 h, dose 25-100 mg/kg
MIA PaCa-2 [13] = assay: Induction of cell arrest in human MIA PaCa-2 cells assessed as accumulation of cells at G2 phase at 25 nM measured after 96 hrs by PI staining based flow cytometry (reference value: 11.2%); type: functional
MIA PaCa-2 [14] = assay: Antitumor activity against human MIA PaCa-2 cells xenografted in BALB/c nude mouse assessed as reduction in Ki67 protein expression at 25 to 100 mg/kg, iv once daily for 25 consecutive day after 2 weeks of cells injection by immunohistochemical analysis; type: functional, organism-based; details: dose 25-100 mg/kg
MIA PaCa-2 [15] = assay: Induction of cell arrest in human MIA PaCa-2 cells assessed as necrotic cells at 50 nM measured after 4 days by Annexin V-FITC and propidium iodide (PI) staining based assay (reference value: 0.82%); type: functional; details: time 4 day
MIA PaCa-2 [16] = assay: Induction of senescence in human MIA PaCa-2 cells at 50 to 1000 nM measured after 96 hrs by beta-galactosidase staining based assay; type: functional, cell-based; details: dose 50-1000 nM
MIA PaCa-2 [17] = assay: Induction of cell arrest in human MIA PaCa-2 cells assessed as accumulation of cells at S phase at 100 nM measured after 96 hrs by PI staining based flow cytometry (reference value: 16.8%); type: functional
MIA PaCa-2 [18] = assay: Effect on mitochondrial membrane potential loss in human MIA PaCa-2 cells assessed as change in membrane potential at 0.1 to 5 uM incubated for 96 hrs by JC-1 staining based flow cytometry analysis; type: functional, cell-based; details: dose 0.1-5 µM
MIA PaCa-2 [19] = assay: Induction of cell arrest in human MIA PaCa-2 cells assessed as early apoptotic cells at 100 nM measured after 4 days by Annexin V-FITC and propidium iodide (PI) staining based assay (reference value: 1.07%); type: functional; details: time 4 day
MIA PaCa-2 [20] = assay: Induction of cell arrest in human MIA PaCa-2 cells assessed as late apoptotic cells at 200 nM measured after 4 days by Annexin V-FITC and propidium iodide (PI) staining based assay (reference value: 3.23%); type: functional; details: time 4 day
MIA PaCa-2 [21] = assay: Reduction of protein complexes of mitochondrial electron transport chain in human MIA PaCa-2 cells reduction in MTCO1 protein level by Western blot analysis; type: functional, cell-based; details: dose 0.001-5 µM
MIA PaCa-2 [22] = assay: Induction of cell arrest in human MIA PaCa-2 cells assessed as accumulation of cells at G2 phase at 50 nM measured after 96 hrs by PI staining based flow cytometry (reference value: 11.2%); type: functional
MIA PaCa-2 [23] = assay: Inhibition of RNA pol II in human MIA PaCa-2 cells assessed as effect on 25S RNA level at 0.1 to 1 uM measured after 12 hrs by RT-qPCR analysis; type: cell-based; details: dose 0.1-1 µM
MIA PaCa-2 [24] = assay: Induction of cell arrest in human MIA PaCa-2 cells assessed as viable cells at 500 nM measured after 4 days by Annexin V-FITC and propidium iodide (PI) staining based assay (reference value: 94.9%); type: functional; details: MIA PaCa-2, 96 h, time 4 day, read-out: Activity
[25] = Toxicity in BALB/c mouse xenografted with human MIA PaCa-2 cells assessed as change in body weight at 25 to 100 mg/kg, iv once daily for 25 consecutive day after 2 weeks of cells injection; type: organism-based; details: in vivo, 600 h, dose 25-100 mg/kg, time 25 day
[26] = Antiproliferative activity against HUVEC cells assessed as cell viability measured after 168 hrs incubation by SRB assay; type: toxicity, cell-based; details: human
MIA PaCa-2 [27] = assay: Induction of cell arrest in human MIA PaCa-2 cells assessed as necrotic cells at 25 nM measured after 4 days by Annexin V-FITC and propidium iodide (PI) staining based assay (reference value: 0.82%); type: functional; details: time 4 day
MIA PaCa-2 [28] = assay: Effect on extracellular acidification rate (ECAR) in human MIA PaCa-2 cells at 1 to 200 nM incubated for 168 hrs; type: functional, cell-based; details: dose 1-200 nM
[29] = target: DNA-directed RNA polymerase, mitochondrial (Homo sapiens) (UniProt O00411); assay: Inhibition of human POLRMT in human MIA PaCa-2 cells assessed as mitochondria coded ubiquinone oxidoreductase core subunit 1 (ND I) transcript level at 500 nM measured after 24 hrs by RT-qPCR analysis relative to control; design: scale not given: the % may be the effect or the level left
MIA PaCa-2 [30] = assay: Down-regulation of COX1 gene expression in human MIA PaCa-2 cells at 0.1 to 1 uM measured after 12 hrs by RT-qPCR analysis; type: functional, cell-based; details: dose 0.1-1 µM

DNA-directed RNA polymerase, mitochondrial (Homo sapiens), sequence (O00411 whole entry): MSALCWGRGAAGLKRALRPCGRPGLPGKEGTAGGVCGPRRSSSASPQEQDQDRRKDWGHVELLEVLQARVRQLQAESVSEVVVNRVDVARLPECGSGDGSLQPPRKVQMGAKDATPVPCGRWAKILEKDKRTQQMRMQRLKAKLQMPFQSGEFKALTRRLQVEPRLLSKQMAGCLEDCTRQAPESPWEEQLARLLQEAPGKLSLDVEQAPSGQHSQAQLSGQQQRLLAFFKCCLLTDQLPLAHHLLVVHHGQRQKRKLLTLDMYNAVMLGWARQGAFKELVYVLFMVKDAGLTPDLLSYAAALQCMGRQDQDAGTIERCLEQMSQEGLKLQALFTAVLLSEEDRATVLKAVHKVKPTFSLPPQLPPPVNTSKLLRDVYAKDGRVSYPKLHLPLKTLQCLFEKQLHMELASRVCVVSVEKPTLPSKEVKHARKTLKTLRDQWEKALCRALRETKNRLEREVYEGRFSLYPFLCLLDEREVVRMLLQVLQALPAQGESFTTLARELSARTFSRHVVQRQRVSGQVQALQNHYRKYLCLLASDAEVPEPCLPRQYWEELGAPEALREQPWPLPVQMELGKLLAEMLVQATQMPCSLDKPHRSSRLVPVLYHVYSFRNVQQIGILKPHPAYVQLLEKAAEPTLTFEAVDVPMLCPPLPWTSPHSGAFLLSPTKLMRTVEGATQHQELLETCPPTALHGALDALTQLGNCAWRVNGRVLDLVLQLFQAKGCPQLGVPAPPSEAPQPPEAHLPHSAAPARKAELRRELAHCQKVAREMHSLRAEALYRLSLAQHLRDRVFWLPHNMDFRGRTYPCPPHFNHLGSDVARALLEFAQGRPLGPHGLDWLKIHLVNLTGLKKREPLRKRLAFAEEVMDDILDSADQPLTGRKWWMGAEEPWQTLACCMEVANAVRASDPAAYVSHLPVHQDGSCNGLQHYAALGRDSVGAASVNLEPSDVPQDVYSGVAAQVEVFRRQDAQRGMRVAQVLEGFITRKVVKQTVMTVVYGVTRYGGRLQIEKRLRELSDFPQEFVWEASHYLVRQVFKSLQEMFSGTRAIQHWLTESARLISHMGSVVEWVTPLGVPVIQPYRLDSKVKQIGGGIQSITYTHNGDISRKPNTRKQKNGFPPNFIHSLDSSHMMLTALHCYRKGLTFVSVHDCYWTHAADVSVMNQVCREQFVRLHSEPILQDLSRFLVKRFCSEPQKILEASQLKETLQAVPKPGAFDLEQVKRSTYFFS

- Activity [29]: 9%
SMILES: CCN(CC)C(=O)[C@@H](C)Oc1cc2oc(=O)cc(-c3ccccc3C)c2cc1F
- viability at 0.1 µM (MIA PaCa-2 [1]): 94.9%
- IC50 [2]: 4 nM
- Activity (MIA PaCa-2 [3]): 15.4%
- Activity (MIA PaCa-2 [4]): 17.6%
- Activity (MIA PaCa-2 [5]): 0.83%
- Activity (MIA PaCa-2 [6]): Active
- IC50 (CAPAN-1): 404 nM
- Activity [7]: Non-Toxic
- Activity (MIA PaCa-2 [8]): inactive
- Activity (MIA PaCa-2 [9]): 67.1%
- inhibition (MIA PaCa-2 [10]): inactive
- Activity (MIA PaCa-2 [11]): Dose-Dependent Effect
- Activity [12]: Non-Toxic
- Activity (MIA PaCa-2 [13]): 12.6%
- Activity (MIA PaCa-2 [14]): Active
- Activity (MIA PaCa-2 [15]): 0.76%
- Activity (MIA PaCa-2 [16]): inactive
- Activity (MIA PaCa-2 [17]): 16.7%
- Activity (MIA PaCa-2 [18]): inactive
- Activity (MIA PaCa-2 [19]): 0.57%
- Activity (MIA PaCa-2 [20]): 3.94%
- Activity (MIA PaCa-2 [21]): Dose-Dependent Effect
- Activity (MIA PaCa-2 [22]): 10.4%
- inhibition (MIA PaCa-2 [23]): inactive
- viability at 0.5 µM (MIA PaCa-2 [24]): 94.3%
- Activity [25]: Non-Toxic
- IC50 at 168 h [26]: > 50000 nM
- Activity (MIA PaCa-2 [27]): 0.82%
- Activity (MIA PaCa-2 [28]): inactive
- Activity (MIA PaCa-2 [30]): Active
